Data on 2 substances can be found in US20240158442A1, “MULTIFUNCTIONAL POLYPEPTIDE AND APPLICATION THEREOF IN FIELD OF MEDICINES” (Wuhan Innerse Pharmaceutical Inc., priority 2021, published 2024).

The subject of data set [1] is rats with cerebral ischemia (middle cerebral artery occlusion, MCAO). The data set is described as follows: MCAO rat model of cerebral ischemia, behavioral observation and scoring (Example 5). The data set is classed as in vivo, SD rats. Particulars: 3 mg/kg via tail vein; for behavioral score, rat No. 1: individual animal No. 1; for behavioral score, rat No. 2: individual animal No. 2; for behavioral score, rat No. 3: individual animal No. 3; for behavioral score, rat No. 4: individual animal No. 4; for behavioral score, rat No. 5: individual animal No. 5; for behavioral score, rat No. 6: individual animal No. 6; for behavioral score, mean value: scored 22-24 h after suturation, scale 0-5, 6 rats per group. How it is done: (§1) In order to determine the application of the synthetic peptides provided by the present invention in neurological diseases, the present invention uses SD rats as experimental objects, and performs middle cerebral artery occlusion method (MCAO) to prepare rat model of cerebral ischemia. These rats were injected drugs intravenously 1-2 hours after ischemia, and a behavioral observation and scoring was conducted for each animal after 22-24 hours. After the behavioral observation, the experimental rats were euthanized and their brains were removed, cut to sections and stained with TTC for quantitative analysis, and the cerebral infarct volume % was calculated.
(§2) The experimental SD rat was weighed and anesthetized with chloral hydrate. After anesthesia, the limbs of the rat were fixed, and the rat was placed in a supine position, connected to the small-animal monitor, and monitored for important physiological parameters such as body temperature, blood pressure and heart rate, etc. The rat's neck was shaved and disinfected with 75% alcohol cotton ball. A middle incision of about 2 cm length was then made on the neck of the experimental rat, and the submandibular gland of the rat was bluntly separated while avoiding damage to the gland. Then, the left common carotid artery (CCA) of the experimental rat was bluntly separated, and the internal carotid artery (ICA) and external carotid artery (ECA) were carefully separated upward along the CCA. Any damage to vagus nerves was avoided during the separation. The CCA and ICA were clamped respectively with two artery clamps, and the distal end of the ECA was cut off and a silicone suture emboli was inserted into the ECA “port” to the ICA artery clamp, then the artery clamp was quickly loosened and the tip of the suture emboli was put in through the artery clamp quickly before clamping the ICA again. This step was repeated and the suture emboli was put in further until the black mark of the suture emboli reached the bifurcation of the ECA and ICA, and the tip of the suture emboli blocked the middle cerebral artery and then the ECA “port” and the suture emboli was tied tightly using a thread in order to prevent the “escape” of suture emboli or bleeding after the rat waked up. The artery clamps on the CCA and ICA were then loosed and removed to restore the tissue to its original position, and an appropriate amount of penicillin was applied to prevent wound infection. A medical suture needle with thread was used to suture, and the wound was disinfected using povidone-iodine again after the suturation. The experimental rats were monitored with the small-animal monitor to evaluate if their physiological parameters were normal, and the rats were placed on a small-animal electric blanket to keep their body temperature until they waked up, and placed in animal cages.
(§3) The drug to be tested was prepared as 3 mg/mL solution. The drug was dosed via tail vein 1-2 h after the suturation.
(§4) During the drug administration, the rat was fastened with a fastening device, and the drug to be tested was injected into the tail vein of the rat at 3 mg/kg using 1 mL syringe, the drug was injected slowly to reduce the cardiopulmonary load of the experimental rat.
(§5) The animals were divided into different test groups, with 6 rats for each group. Model group: After the suturation, an equal amount of normal saline was given via tail vein; Drug groups S1 (NA1), S4 (β-Ala-His-Lys-Ala-Pro) and S5 (Pro-Ala-Lys-β-Ala-His): administered via tail vein after the suturation;
The behavioral observation and scoring were performed on each animal 22-24h after the suturation.

For data set [2] the test system is unchanged. The data set is described as follows: MCAO rat model of cerebral ischemia, TTC staining, cerebral infarct volume (Example 5). Conditions: for infarct volume (TTC quantification), mean value: 3 mg/kg via tail vein 1-2 h after suturation, TTC after 22-24 h, 6 rats per group; for infarct volume (TTC quantification), rat No. 1: individual animal No. 1; for infarct volume (TTC quantification), rat No. 2: individual animal No. 2; for infarct volume (TTC quantification), rat No. 3: individual animal No. 3; for infarct volume (TTC quantification), rat No. 4: individual animal No. 4; for infarct volume (TTC quantification), rat No. 5: individual animal No. 5; for infarct volume (TTC quantification), rat No. 6: individual animal No. 6. The data set is classed as in vivo, SD rats. On the procedure:
as §1
• Small-animal monitor: VT200 from Rongxianda Technology Co., Ltd., Shenzhen, China. • SD rats: 180-200 g, from China National Institutes for Food and Drug Identification. • Suture emboli: Maiyue Bio (M8507). • TTC staining solution: Yuanye Bio (R24053).
as §2, §3, §4, §5
After the behavioral observation, experimental rats were euthanized and their brains were removed. […]

The test system of data set [3] is experimental cerebral ischemia-reperfusion in animals (cynomolgus monkeys). Particulars: preclinical ischemic stroke model; cited from earlier work.
Data set [4] deals with rat cerebral ischemic stroke (MCAO, reperfusion 120 min after ischemia). As to the kind of experiment: Dose-effect experiment, suture-embolized MCAO ischemia-reperfusion model, TTC staining, cerebral infarction size (Example 6). Format: in vivo, Sprague-Dawley (SD) rats. Conditions: for Infarct size (infarct tissue weight as percentage of whole brain weight): model control 24.84 ± 3.39.
Source text: Preparation method: an amount of test substance was weighted and fully dissolved using water for injection to the required concentration, and was filtered with a 0.22 μm filter to sterilize.
Animal strain: Sprague-Dawley (SD) rats; grade: SPF grade. Body weight: 200.01-240.03 g when the accommodation started, 213.79-278.79 g when grouping. Age: about 5-7 weeks old during the accommodation, and 6-8 weeks old when grouping. Source: SPF (Beijing) Biotechnology Co., Ltd., Beijing, China.
A. Isolating and exposing blood vessels: the skin of the surgical area was shaved, and the rat was placed under a surgical microscope. The skin of the rat was cut along the midline with ophthalmic scissors, with a cut of about 2 cm length. Through the right neck of the rat, the muscle tissue of the right neck was bluntly isolated and opened with a microforcep to expose the right common carotid artery (CCA), and then isolated upward along the common carotid artery to further expose the external carotid artery (ECA) and internal carotid artery (ICA);
B. The ECA was ligated and the ICA was temporarily clamped; the proximal end and distal end of CCA were threaded separately, the distal end was tied tightly and the proximal end was tied with a loose knot, and a small incision was made between the two threads;
Inserting the suture emboli: A No. 4-0 suture emboli was inserted through the incision of CCA, pushed slowly and gently into the internal carotid artery, and stopped at the artery clamp of ICA, the pre-set thread was tied tightly (to avoid severe bleeding when pushing the suture emboli), then the artery clamp that blocked the blood flow of ICA was removed, and the suture emboli was immediately pushed into ICA until entering into the cranium. […]
D. Fixing the suture emboli and suturing the incision: if one felt slight resistance when the suture emboli was inserted about 18 mm depth from the bifurcation of the common carotid artery, it means that the tip of the suture emboli has entered into the cerebral anterior artery (ACA), and the side wall of the suture emboli has blocked the opening of the middle cerebral artery; at the moment, the insertion was terminated and the time was recorded. […]

For data set [5] the test system is unchanged. As to the kind of experiment: Dose-effect experiment, MCAO ischemia-reperfusion model, rat neurological function score (NSS). The data set is classed as in vivo, Sprague-Dawley (SD) rats. Particulars: 3 mg/kg i.v., D 2 = 1 day after surgery, model control 8.62 ± 0.84. How it is done: The establishment of rat model: the rats were placed in an anesthesia induction box filled with 3.0% isoflurane for anesthesia induction. Anesthesia-induced animals were transferred to the operating table, and anesthesia was maintained with 2.0%˜2.5% isoflurane at 200 mL/min using a small-animal gas anesthesia machine, and the eyelid reflex and pain response of the rats were observed. The surgery can be started only after the eyelid reflex response and the pain response on limbs and tail disappeared. […]
• Measurement time: 24 hours before and after modeling; • Animals measured: all the surviving experimental animals planned to be measured; • Measurement method: a motor function test, sensory test, balance test, and reflex and abnormal behavior test were performed on animals, according to the rat neurological function score scale (NSS) for details.
The main purpose of clinical treatment for cerebral infarction is to restore the patient's neurological function as much as possible and to improve the quality of life after stroke. In this experiment, the animals were evaluated with Bederson scoring 1 hour after ischemia to evaluate the ischemia in animals. One day after modeling, the neurobehavioral function of animals was evaluated with NSS scoring scale in order to evaluate the effect of test substance in improving the neurological function of animals.

Data set [6] has as its system patients with acute ischemic stroke (AIS) undergoing endovascular thrombectomy. Conditions: intravenous injection 2.6 mg/kg; cited from earlier work.
Data set [7] in a line: Dose-effect experiment, body weight of MCAO model animals. Particulars: 3 mg/kg i.v.; D 2 = 1 day after surgery.
Procedure: Measurement time: the body weight was measured at least twice during the accommodation, and each batch of rats were weighed once on the day before the surgery and on the day of dissection to calculate the amount of drug administered and the anesthetic applied; the body weight was measured twice a week after the surgery.
The effect of test substance on the weight of model animals: cerebral ischemia-reperfusion is an acute injury model, wherein the weight of experimental animals will drop dramatically after MCAO modeling. Thus, the weight of experimental animals is one of the most basic sensitive parameters to comprehensively reflect the health status of animals.
Where [8] appears, read: listed as β-Ala-His-Lys-Ala-Pro.
[9] abbreviates: 3 mg/kg i.v. once within 10 min after reperfusion, TTC 24 h after treatment.

Square brackets hold non-standard residues; d marks the D form. Ends that are not written are not given here. βAla = NCCC(=O)O

For “β-Ala-His-Lys-Ala-Pro ([βAla]HKAP) [Example S4]”, in data set [1] (compared with S1 (NA1) 3 mg/kg), the “behavioral score, statistical comparison with S1” value was “not statistically different from S1”. In data set [1], the “behavioral score, rat No. 1” value was 3 points; the “behavioral score, rat No. 2” value is 2 points; the “behavioral score, rat No. 3” value came out at 3 points; the “behavioral score, rat No. 4” value amounted to 2 points. In data set [1], the “behavioral score, rat No. 5” value was found to be 1 points; the “behavioral score, rat No. 6” value was found to be 1 points; the “behavioral score, mean value” is recorded as 2.0 points. The “behavioral score, mean value” in data set [1] (setting [8]) is on record as 2.0±0.9 points. Moreover, the “infarct volume (TTC quantification), mean value” (from here on “infarct volume … mean value”) in data set [2] amounted to 0.155. The “infarct volume … mean value” in data set [2] (setting [8]) is reported as 0.155±0.044. Besides, the “infarct volume, statistical comparison with S1” value in data set [2] (3 mg/kg via tail vein, compared with S1 (NA1) 3 mg/kg) is recorded as “not statistically different from S1”. In data set [2] (3 mg/kg via tail vein), the “infarct volume (TTC quantification), rat No. 1” value was 0.233; the “infarct volume (TTC quantification), rat No. 2” value is reported as 0.157; the “infarct volume (TTC quantification), rat No. 3” value came out at 0.137; the “infarct volume (TTC quantification), rat No. 4” value is recorded as 0.171. Also, in data set [2] (3 mg/kg via tail vein), the “infarct volume (TTC quantification), rat No. 5” value is reported as 0.118 and the “infarct volume (TTC quantification), rat No. 6” value is 0.116.

With “YGRKKRRQRRRKLSSIESDV [Example S1, nerinetide]”, in data set [1], the “behavioral score, rat No. 1” value was 2 points; the “behavioral score, rat No. 2” value turned out to be 2 points; the “behavioral score, rat No. 3” value was found to be 2 points; the “behavioral score, rat No. 4” value is listed as 2 points. Also, in data set [1], the “behavioral score, rat No. 5” value came to 1 points; the “behavioral score, rat No. 6” value came out at 3 points; the “behavioral score, mean value” is 2.0 points. For the same substance, the “behavioral score, mean value” in data set [1] (listed as NA1) was 2.0±0.6 points. Also, in data set [3], the functional prognosis entry is “improve the functional prognosis” and the “infarct size of experimental cerebral ischemia-reperfusion” value is “reduce the infarct size”. The “infarct volume … mean value” in data set [2] amounted to 0.157. In addition, the “infarct volume … mean value” in data set [2] (listed as NA1) is listed as 0.157±0.040. For the same substance, in data set [2] (3 mg/kg via tail vein), the “infarct volume (TTC quantification), rat No. 1” value worked out at 0.187; the “infarct volume (TTC quantification), rat No. 2” value turned out to be 0.218; the “infarct volume (TTC quantification), rat No. 3” value is 0.153; the “infarct volume (TTC quantification), rat No. 4” value amounted to 0.145. Besides, in data set [2] (3 mg/kg via tail vein), the “infarct volume (TTC quantification), rat No. 5” value was determined as 0.107 and the “infarct volume (TTC quantification), rat No. 6” value turned out to be 0.134. Besides, in data set [4] (setting [9]), the Infarct weight is 0.24 ± 0.02 g and the “Infarct size (infarct tissue weight as percentage of whole brain weight)” value came out at 16.74±3.14%. The “Infarct size (infarct tissue weight as percentage of whole brain weight)” value in data set [4] (3 mg/kg i.v. once within 10 min after reperfusion, TTC 24 h after treatment, listed as Positive drug) amounted to 16.74 ± 3.14 %. For the same substance, in data set [4] (3 mg/kg i.v., calculated from infarct size versus model control group), the “Inhibition rate of cerebral infarction” value is 33%. The “NSS score D 2” value in data set [5] (listed as Positive drug) is 8.00 ± 0.76. Moreover, in data set [5] (listed as positive control), the “NSS score D 2” value was found to be 8.00±0.76. The “patient's prognosis” value in data set [6] is “improved patient's prognosis”. Further, the “Weight D 2” value in data set [7] came to 203.7 ± 10.94 g.
